Test [1] addresses T1, human mAChR M1 (Homo sapiens, UniProt P11229).
T1 sequence (P11229 1-460): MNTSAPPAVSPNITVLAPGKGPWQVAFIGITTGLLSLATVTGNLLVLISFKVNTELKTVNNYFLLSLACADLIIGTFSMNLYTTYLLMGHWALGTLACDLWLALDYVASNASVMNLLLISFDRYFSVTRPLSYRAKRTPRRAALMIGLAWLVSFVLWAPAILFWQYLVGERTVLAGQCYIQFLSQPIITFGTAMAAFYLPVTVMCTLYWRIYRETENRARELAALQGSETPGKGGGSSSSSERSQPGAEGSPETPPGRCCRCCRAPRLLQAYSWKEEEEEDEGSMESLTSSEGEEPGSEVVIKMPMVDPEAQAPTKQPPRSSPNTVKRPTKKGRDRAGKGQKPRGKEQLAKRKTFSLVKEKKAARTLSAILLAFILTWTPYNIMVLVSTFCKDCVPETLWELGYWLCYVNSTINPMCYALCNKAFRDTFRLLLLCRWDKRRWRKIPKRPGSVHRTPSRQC
Put plainly: mAChR M1 cell-based functional assay (calcium mobilization), agonist mode: compound alone, Emax relative to acetylcholine maximum. The settings on record: for EC50 / Agonist Activity Human M1 EC50: human mAChR M1; for Emax: relative to the maximum for acetylcholine. A digest of the protocol:
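Agonist activity is the concentration-dependent rise in intracellular calcium (Fluo-4, 1 Hz read) after compound addition, measured before any acetylcholine was added, in stable hM1 CHO-K1 cells. Curves were 11-point, 1:3 dilutions fitted by four-parameter logistic. Emax is given as a fraction of maximal acetylcholine response.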

Test [2] has as its target T1, human mAChR M1. Put plainly: mAChR M1 cell-based functional assay (calcium mobilization), PAM mode: increase in the EC20 acetylcholine response. An outline of the steps:
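PAM readout is the concentration-dependent rise in the EC20 acetylcholine calcium signal, fitted to a four-parameter logistic (EC50, Emax). Compounds were preincubated from 4 s before ACh at 144 s (EC20) and 230 s (EC80). hM1-expressing CHO-K1 cells loaded with Fluo-4, FDSS ratio read.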

A value given as a limit tells only on which side of the number the result lay.

The term EC50 denotes the concentration at which the effect is half-maximal. A word on the Emax: it is the maximal effect, on the per cent scale that the assay sets. On to `[2H]C1([2H])c2ncccc2C(=O)N1Cc1c(F)cc(-c2ccc(OCS(C)(=O)=O)c3nn(C)cc23)cc1F` [Compound 186, 6-(2,6-difluoro-4-(2-methyl-7-((methylsulfonyl)methoxy)-2H-indazol-4-yl)benzyl)-6,7-dihydro-5H-pyrrolo[3,4-b]pyridin-5-one-7,7-d2], for which, on human mAChR M1 [1], the EC50 came out at 7230 nM and the Emax was found to be 15%. At human mAChR M1 [2], the EC50 was found to be 391 nM and the Emax came out at 72%.
In the case of `[2H]C1([2H])c2ncccc2C(=O)N1Cc1c(F)cc(-c2cc(F)c(Cl)c3c2cnn3C([2H])([2H])[2H])cc1F` [Compound 249, 6-(4-(7-chloro-6-fluoro-1-(methyl-d3)-1H-indazol-4-yl)-2,6-difluorobenzyl)-6,7-dihydro-5H-pyrrolo[3,4-b]pyridin-5-one-7,7-d2], at human mAChR M1 [1], the “Agonist Activity Human M1 EC50” value is “Inactive” and the Emax came to 14%. At human mAChR M1 [2], the EC50 was greater than 10000 nM and the Emax came to 20%.
In the case of `[2H]C1([2H])c2ncccc2C(=O)N1Cc1c(F)cc(-c2ccc(S(C)(=N)=O)c3nn(C)cc23)cc1F` (stereo not shown) [Compound 182, 6-(2,6-difluoro-4-(2-methyl-7-(S-methylsulfonimidoyl)-2H-indazol-4-yl)benzyl)-6,7-dihydro-5H-pyrrolo[3,4-b]pyridin-5-one-7,7-d2], at human mAChR M1 [1], the “Agonist Activity Human M1 EC50” value is on record as “Inactive” and the Emax was found to be 3%. For the same compound, at human mAChR M1 [2], the EC50 came to 594 nM and the Emax stood at 87%.
For the compound `[2H]C([2H])([2H])Oc1cnc2c(c1)C(=O)N(Cc1ccc(-c3cccc4nn(C)cc34)cc1)C2([2H])[2H]` [Compound 83, 3-(methoxy-d3)-6-(4-(2-methyl-2H-indazol-4-yl)benzyl)-6,7-dihydro-5H-pyrrolo[3,4-b]pyridin-5-one-7,7-d2], the EC50 at human mAChR M1 [1] was determined as 6230 nM; at human mAChR M1 [2] it was 244 nM. Besides, the maximal effect (Emax) came to 19% on human mAChR M1 [1] and 80% at human mAChR M1 [2].
As to `[2H]C1([2H])c2ncccc2C(=O)N1Cc1c(F)cc(-c2cccc3nn(C)cc23)cc1N(C)C` [Compound 229, 6-(2-(dimethylamino)-6-fluoro-4-(2-methyl-2H-indazol-4-yl)benzyl)-6,7-dihydro-5H-pyrrolo[3,4-b]pyridin-5-one-7,7-d2], at human mAChR M1 [1], the “Agonist Activity Human M1 EC50” value is given as “Inactive” and the Emax is 4%. Besides, at human mAChR M1 [2], the EC50 is no less than 10000 nM and the Emax was 42%.
For the compound `[2H]C1([2H])c2ncccc2C(=O)N1Cc1c(F)cc(-c2ccc(F)c3nn(C)cc23)cc1C1CC1` [Compound 205, 6-(2-cyclopropyl-6-fluoro-4-(7-fluoro-2-methyl-2H-indazol-4-yl)benzyl)-6,7-dihydro-5H-pyrrolo[3,4-b]pyridin-5-one-7,7-d2], on human mAChR M1 [1], the EC50 was 5980 nM and the Emax is 54%. Moreover, on human mAChR M1 [2], the EC50 stood at 248 nM and the Emax came out at 86%.
Regarding `[2H]C1([2H])c2ncccc2C(=O)N1Cc1c(C)cc(-c2ccc3nn(C([2H])([2H])[2H])cc3c2)cc1F` [Compound 160, 6-(2-fluoro-6-methyl-4-(2-(methyl-d3)-2H-indazol-5-yl)benzyl)-6,7-dihydro-5H-pyrrolo[3,4-b]pyridin-5-one-7,7-d2], at human mAChR M1 [1], the EC50 is no less than 10000 nM and the Emax worked out at 13%. On human mAChR M1 [2], the EC50 is 396 nM and the Emax stood at 83%.
Taken in the same sequence, the figures for `[2H]C1([2H])c2ncccc2C(=O)N1Cc1c(F)cc(-c2ccc(OCC)c3nn(C([2H])([2H])[2H])cc23)cc1F` [Compound 97, 6-(4-(7-ethoxy-2-(methyl-d3)-2H-indazol-4-yl)-2,6-difluorobenzyl)-6,7-dihydro-5H-pyrrolo[3,4-b]pyridin-5-one-7,7-d2] were 5940 nM, 25%, 164 nM and 88%.
For `[2H]C1([2H])c2ncccc2C(=O)N1Cc1ccc(-c2ccc(OC(C)COC)c3nn(C)cc23)cc1F` (stereo not shown) [Compound 143, 6-(2-fluoro-4-(7-((1-methoxypropan-2-yl)oxy)-2-methyl-2H-indazol-4-yl)benzyl)-6,7-dihydro-5H-pyrrolo[3,4-b]pyridin-5-one-7,7-d2], on human mAChR M1 [1], the EC50 was no less than 10000 nM and the Emax amounted to 15%. Also, at human mAChR M1 [2], the EC50 turned out to be 1270 nM and the Emax came to 74%.
As to `[2H]C1([2H])c2ncccc2C(=O)N1Cc1ccc(-c2cnc3nn(C)cc3c2)cc1` [Compound 13, 6-(4-(2-methyl-2H-pyrazolo[3,4-b]pyridin-5-yl)benzyl)-6,7-dihydro-5H-pyrrolo[3,4-b]pyridin-5-one-7,7-d2], at human mAChR M1 [1], the “Agonist Activity Human M1 EC50” value is given as “Inactive” and the Emax was 3%. Also, on human mAChR M1 [2], the EC50 was 5190 nM and the Emax is 75%.
On to `[2H]C1([2H])c2ncccc2C(=O)N1Cc1ccc(-c2cc3cn(C)nc3cc2C)cc1F` [Compound 26, 6-(4-(2,6-dimethyl-2H-indazol-5-yl)-2-fluorobenzyl)-6,7-dihydro-5H-pyrrolo[3,4-b]pyridin-5-one-7,7-d2], for which, on human mAChR M1 [1], the “Agonist Activity Human M1 EC50” value is “Inactive” and the Emax is 3%. In addition, at human mAChR M1 [2], the EC50 was determined as 7580 nM and the Emax worked out at 58%.
Regarding `[2H]C1([2H])c2ncccc2C(=O)N1Cc1c(F)cc(-c2ccc(OC)c3n[nH]cc23)cc1F` [Compound 38, 6-(2,6-difluoro-4-(7-methoxy-2H-indazol-4-yl)benzyl)-6,7-dihydro-5H-pyrrolo[3,4-b]pyridin-5-one-7,7-d2], on human mAChR M1 [1], the EC50 was greater than 10000 nM and the Emax worked out at 2%. Moreover, at human mAChR M1 [2], the EC50 was 436 nM and the Emax turned out to be 69%.
Taken in the same sequence, the figures for `[2H]C1([2H])c2ncccc2C(=O)N1Cc1c(C)cc(-c2ccc(C(F)(F)F)c3nn(C)cc23)cc1F` [Compound 200, 6-(2-fluoro-6-methyl-4-(2-methyl-7-(trifluoromethyl)-2H-indazol-4-yl)benzyl)-6,7-dihydro-5H-pyrrolo[3,4-b]pyridin-5-one-7,7-d2] were no less than 10000 nM, 15%, 768 nM and 83%.
For `[2H]C1([2H])c2ncccc2C(=O)N1Cc1c(F)cc(-c2ccc(F)c3c2cnn3C([2H])([2H])[2H])cc1F` [Compound 68, 6-(2,6-difluoro-4-(7-fluoro-1-(methyl-d3)-1H-indazol-4-yl)benzyl)-6,7-dihydro-5H-pyrrolo[3,4-b]pyridin-5-one-7,7-d2], on human mAChR M1 [1], the “Agonist Activity Human M1 EC50” value is reported as “Inactive” and the Emax was determined as 2%. At human mAChR M1 [2], the EC50 is greater than 10000 nM and the Emax is 64%.
`[2H]C1([2H])c2ncccc2C(=O)N1Cc1ccc(-c2ccc(O[C@@H](C)COC)c3nn(C)cc23)cc1F` [Compound 152, (S)-6-(2-fluoro-4-(7-((1-methoxypropan-2-yl)oxy)-2-methyl-2H-indazol-4-yl)benzyl)-6,7-dihydro-5H-pyrrolo[3,4-b]pyridin-5-one-7,7-d2]: at human mAChR M1 [1], the EC50 was no less than 10000 nM and the Emax was 27%. In addition, at human mAChR M1 [2], the EC50 was found to be 643 nM and the Emax turned out to be 80%.
With `[2H]C1([2H])c2ncccc2C(=O)N1Cc1c(F)cc(-c2cc(OC)cc3nn(C)cc23)cc1F` [Compound 90, 6-(2,6-difluoro-4-(6-methoxy-2-methyl-2H-indazol-4-yl)benzyl)-6,7-dihydro-5H-pyrrolo[3,4-b]pyridin-5-one-7,7-d2], on human mAChR M1 [1], the “Agonist Activity Human M1 EC50” value is on record as “Inactive” and the Emax came out at 2%. Besides, at human mAChR M1 [2], the EC50 is 1700 nM and the Emax came to 72%.

Source of the values: patent publication US20240228489A1, “POSITIVE ALLOSTERIC MODULATORS OF THE MUSCARINIC ACETYLCHOLINE RECEPTOR M1” (Vanderbilt University, priority 2021, published 2024).
